Measured values published in patent publication US20160047819A1, “METHOD FOR DIAGNOSING VAGINAL INFECTIONS” (priority 2013, published 2016).

System: bacterial vaginosis
Experiment: Remission of bacterial vaginosis at V3 by Amsel's criteria and Gram stain Nugent score
Format: in vivo, human
Protocol: Also provided is a diagnostic kit for use characterizing at least one protein useful for identifying the status of a vaginal infection. The kit includes instructions for carrying out a method of diagnosing vaginal infection using mass spectrometry. The diagnostic method of the invention has been tested on vaginal fluids collected from women enrolled in a clinical study of 80 Belgian pre-menopausal, non-pregnant women, aged between 18 and 50 years were analyzed. At the screening visit (V1) diagnosis of health or BV was made using both Amsel's criteria and Gram stain Nugent scoring. Patients with Nugent score >3 and positive for at least 3 of 4 Amsel's criteria were considered positive for BV. According to this clinical evaluation, women were divided into 2 groups: healthy subjects (H), (n=41) and patients diagnosed for BV (n=39). Patients who were diagnosed for BV at the study visit V1 were included in a multicenter, double-blind, randomised, placebo-controlled study reported in U.S. Ser. No. 13/559,013 (EudraCT: 2009-011826-32), that was performed to compare the efficacy of different doses of rifaximin vaginal tablets versus placebo for the treatment of BV. These patients underwent a randomisation visit and were distributed into four treatment groups: • group A received 100 mg rifaximin vaginal tablet once daily for 5 days (n=10), • group B received 25 mg rifaximin vaginal tablet once daily for 5 days (n=10), • group C received 100 mg rifaximin vaginal tablet once daily for the first 2 days and placebo vaginal tablet for the remaining 3 days (n=9), and • group D received placebo vaginal tablet once daily for 5 days (n=10).
After 7 to 10 days from the end of the therapy a follow-up visit (V3) was performed. Remission was evaluated at V3 according to Amsel's criteria (<3) and Gram stain Nugent score ([…]).
(§1) Patients who were diagnosed for BV at the study visit V1 were included in a multicentre, double-blind, randomised, placebo-controlled study (EudraCT: 2009-011826-32), that was performed to compare the efficacy of different doses of rifaximin vaginal tablets versus placebo for the treatment of BV. The patients underwent a randomization visit and were distributed into 4 treatment groups: group A received 100 mg rifaximin vaginal tablet once daily for 5 days (n=10), group B received 25 mg rifaximin vaginal tablet once daily for 5 days (n=10), group C received 100 mg rifaximin vaginal tablet once daily for the first 2 days and placebo vaginal tablet for the remaining 3 days (n=9), group D received placebo vaginal tablet once daily for 5 days (n=10). Study medication was administered intra-vaginally at bedtime. After 7 to 10 days from the end of the therapy a follow-up visit (V3) was performed. Remission was evaluated at V3 according to Amsel's criteria (<3) and Gram stain Nugent score (≦3) (Table 1).
as §1, with “randomisation” for “randomization”

[1] = group A: 100 mg vaginal tablet once daily for 5 days (n=10)
[2] = group B: 25 mg vaginal tablet once daily for 5 days (n=10)
[3] = group C: 100 mg vaginal tablet once daily for 2 days, then placebo 3 days (n=9)

For `CO[C@H]1/C=C/O[C@@]2(C)Oc3c(C)c(O)c4c(O)c(c5c(nc6cc(C)ccn65)c4c3C2=O)NC(=O)/C(C)=C\C=C\[C@H](C)[C@H](O)[C@@H](C)[C@@H](O)[C@@H](C)[C@H](OC(C)=O)[C@@H]1C` [rifaximin], the “women in remission after treatment” value [1] was 2 women, the “women not in remission after treatment” value [1] was 8 women and the “women in remission after treatment” value [2] was 5 women. For the same molecule, the “women not in remission after treatment” value [2] was 5 women, the “women in remission after treatment” value [3] was 4 women and the “women not in remission after treatment” value [3] was 5 women. The “women in remission (R), all treatment groups” value (of 39 BV-affected women after rifaximin/placebo treatment) was 11 women.
